The values below come from US5013549A, “Production, isolation, and identification of novel antifungal compounds” (priority 1990, dated 1991).

Converted amounts (≈) assume the structure as drawn. “Also recorded” adds a separate entry of the source. Read-outs that look alike come from different tables or passages of the source.

The subject of data set [1] is murine tumors. Particulars: more active than adriamycin; cited from earlier work.
For data set [2] the following is noted: cited from earlier work.
The test system of data set [3] is fungi. Particulars: known related compounds; cited from earlier work.
The subject of data set [4] is R. glutinis. Put plainly: Minimum inhibitory concentration, R. glutinis. Particulars: Rhodotorula glutinis. It counts as cell-based. Here is the method: (§1) Known amounts of the purified substance were dissolved in DMSO and serial dilutions prepared in the same solvent. A 20 ul volume of each dilution was placed on the surface of Emmon's agar in petri-dishes seeded with various test strains of pathogenic and saprophytic fungi. The antibacterial activity was monitored using Muller-Hilton agar. The minimum inhibitory concentration (MIC) was determined by incorporating known amount of the DMSO dissolved purified substance into Emmon's liquid medium (same as stated earlier but devoid of agar) contained in test tubes. The tubes were inoculated with ca 2×10^3 CFU of the test organisms. The inoculated tubes were incubated at 26° C. and the results recorded after two to 5 days depending upon the growth pattern of the test organisms (certain fungi grow faster than others). Tubes inoculated in an identical manner but devoid of the active substance served as controls.

Data set [5] concerns Citrobacter species. The data set is described as follows: Minimum inhibitory concentration, Citrobacter species. Format: cell-based. Particulars: bacterial strain. The protocol: as §1
Data set [6] has as its system Aspergillus fumigatus. The data set is described as follows: Minimum inhibitory concentration, Aspergillus fumigatus. It counts as cell-based. Here is the method: as §1
Data set [7] deals with Candida albicans. Put plainly: Minimum inhibitory concentration, Candida albicans. Format: cell-based. Particulars: 26° C., 2 to 5 days, Emmon's liquid medium, fungus. The protocol: as §1
Data set [8] concerns C.neoformans serotype-D. Put plainly: Minimum inhibitory concentration, C.neoformans serotype-D. It counts as cell-based. Particulars: Cryptococcus neoformans, 26° C., 2 to 5 days. Here is the method:
as §1

The test system of data set [9] is A. niger. The data set is described as follows: Minimum inhibitory concentration, A. niger. It counts as cell-based. Particulars: Aspergillus niger; 26° C., 2 to 5 days, Emmon's liquid medium; fungus. The protocol:
as §1

Data set [10] concerns Cladosporium species. The data set is described as follows: Minimum inhibitory concentration, Cladosporium species. It counts as cell-based. Particulars: 26° C., 2 to 5 days, Emmon's liquid medium, fungus. Here is the method:
as §1

Data set [11] in a line: Solubility. Format: physicochemical.
Data set [12] deals with Pseudomonas aeruginosa. The data set is described as follows: Minimum inhibitory concentration, Pseudomonas aeruginosa. Format: cell-based. Particulars: bacterial strain. Here is the method:
as §1

For data set [13], the system named is Staphylococcus aureus ATCC 29213. The data set is described as follows: Minimum inhibitory concentration, Staphylococcus aureus ATCC 29213. Particulars: bacterial strain ATCC 29213. Format: cell-based. Here is the method: as §1
In data set [14] the test system is Cryptococcus neoformans-N-2. The data set is described as follows: Minimum inhibitory concentration, Cryptococcus neoformans-N-2. It counts as cell-based. Particulars: N = encapsulated, mucoid strain with neurotropic tendencies, 26° C., 2 to 5 days. The protocol: as §1
Data set [15] concerns C. quilliermondii. Put plainly: Minimum inhibitory concentration, C. quilliermondii. Format: cell-based. Here is the method: as §1
The subject of data set [16] is Escherichia coli. Put plainly: Minimum inhibitory concentration, Escherichia coli. Format: cell-based. Particulars: bacterial strain. The protocol: as §1
Data set [17] has as its system Penicillium species. The data set is described as follows: Minimum inhibitory concentration, Penicillium species. It counts as cell-based. Particulars: 26° C., 2 to 5 days, Emmon's liquid medium, fungus. Here is the method: as §1
The subject of data set [18] is S. aureus ATCC 25923. The data set is described as follows: Minimum inhibitory concentration, S. aureus ATCC 25923. Particulars: bacterial strain ATCC 25923. It counts as cell-based, Staphylococcus aureus. The protocol:
as §1

A short description of data set [19]: Stability in 2N HCl. It counts as physicochemical.
In data set [20] the test system is C. neoformans serotype-C. The data set is described as follows: Minimum inhibitory concentration, C. neoformans serotype-C. Particulars: Cryptococcus neoformans. It counts as cell-based. Here is the method: as §1
Data set [21] relates to C. neoformans- N-3. Put plainly: Minimum inhibitory concentration, C. neoformans- N-3. Particulars: Cryptococcus neoformans; N = encapsulated, mucoid strain with neurotropic tendencies; 26° C., 2 to 5 days. It counts as cell-based. Here is the method:
as §1

For data set [22], the system named is C. neoformans- G-3. Put plainly: Minimum inhibitory concentration, C. neoformans- G-3. Particulars: Cryptococcus neoformans. Format: cell-based. Here is the method:
as §1

In data set [23] the test system is Rhodotorula rubra. Put plainly: Minimum inhibitory concentration, Rhodotorula rubra. Format: cell-based. Here is the method: as §1
The test system of data set [24] is A. flavus. Put plainly: Minimum inhibitory concentration, A. flavus. Format: cell-based. Particulars: Aspergillus flavus; 26° C., 2 to 5 days, Emmon's liquid medium; fungus. Here is the method:
as §1

In data set [25] the test system is S. aureus (multiple drug resistant). The data set is described as follows: Minimum inhibitory concentration, S. aureus (multiple drug resistant). Format: cell-based, Staphylococcus aureus. Particulars: bacterial strain. The protocol: as §1
The test system of data set [26] is Plebsiella pneumoniae. The data set is described as follows: Minimum inhibitory concentration, Plebsiella pneumoniae. It counts as cell-based. The protocol:
as §1

`CCN[C@H]1CO[C@@H](O[C@H]2[C@H](O[C@H]3C#C/C=C\C#C[C@]4(O)CC(=O)C(NC(=O)OC)=C3/C4=C\CSSSC)O[C@H](C)[C@@H](NO[C@H]3C[C@H](O)[C@H](SC(=O)c4c(C)c(I)c(O[C@@H]5O[C@@H](C)[C@H](O)[C@@H](OC)[C@H]5O)c(OC)c4OC)[C@@H](C)O3)[C@@H]2O)C[C@@H]1OC` [Calicheamicin]: in [1], the “activity relative to adriamycin against murine tumors” value was “approximately 1000 -fold”.

Take `CCC1(O)CC(OC2CC(N(C)C)C(OC3CC(O)C(OC4CCC(=O)C(C)O4)C(C)O3)C(C)O2)c2c(cc3c(c2O)C(=O)c2c(O)ccc(O)c2C3=O)C1C(=O)OC` (stereo not drawn) [cinerubin A]: the “solubility of known cinerubins” value in data set [2] (in ethanol) and in [2] (in methanol) was “soluble” each time. Moreover, the antifungal properties entry in data set [3] was “not significantly antifungal”.

Consider `CC[C@@]1(O)C[C@H](O[C@H]2C[C@H](N(C)C)[C@H](O[C@H]3C[C@@H]4O[C@H]5CC(=O)[C@H](C)O[C@H]5O[C@@H]4[C@H](C)O3)[C@H](C)O2)c2c(cc3c(c2O)C(=O)c2c(O)ccc(O)c2C3=O)[C@H]1C(=O)OC` [cinerubin B], for which the “solubility of known cinerubins” value in [2] (in ethanol) and in data set [2] (in methanol) was “soluble” each time. In addition, the antifungal properties result in data set [3] is listed as “not significantly antifungal”.

For `CCC1(O)CC(OC2CC(N(C)C)C(OC3CC(O)C(OC4CCC(=O)C(C)O4)C(C)O3)C(C)O2)c2c(cc3c(c2O)C(=O)c2c(O)ccc(O)c2C3=O)C1C(=O)OC` (stereo not drawn) [spartanamicin B], the MIC is 0.4 µg/mL (≈ 0.483 µM) in [4]; “not active” in [5]; 0.4 µg/mL (≈ 0.483 µM) in data set [6]; 0.2 µg/mL (≈ 0.242 µM) in data set [7]; 0.8 µg/mL (≈ 0.966 µM) in [8]; 0.6 µg/mL (≈ 0.725 µM) in data set [9]. Further, the MIC in data set [10] is 0.4 µg/mL (≈ 0.483 µM); in data set [12], 100 µg/mL (≈ 121 µM); in [13], 0.8 µg/mL (≈ 0.966 µM); in [14], 0.8 µg/mL (≈ 0.966 µM); in data set [15], 0.8 µg/mL (≈ 0.966 µM); in data set [16], “not active”. The MIC in data set [17] stood at 0.2 µg/mL (≈ 0.242 µM); in data set [18], 0.8 µg/mL (≈ 0.966 µM); in data set [20], 0.8 µg/mL (≈ 0.966 µM); in data set [21], 0.6 µg/mL (≈ 0.725 µM); in data set [22], 1 µg/mL (≈ 1.21 µM); in data set [23], 0.8 µg/mL (≈ 0.966 µM). For the same molecule, the MIC is 0.6 µg/mL (≈ 0.725 µM) in data set [24], “not active” in data set [25] and 100 µg/mL (≈ 121 µM) in data set [26]. The Solubility result in [11] (in 1-butanol) is reported as “Sparingly soluble”; in [11] (in 2N HCl), “Insoluble”; in data set [11] (in N,N-dimethyl formamide (DMF)), “Soluble”; in data set [11] (in acetone), “Soluble”; in data set [11] (in acetonitrile) it was “Sparingly soluble”; in data set [11] (in carbon tetrachloride) it was “Soluble”. Further, the Solubility entry is “Soluble” in data set [11] (in chloroform); “Insoluble” in [11] (in cyclohexane); “Soluble” in data set [11] (in dimethyl sulfoxide (DMSO)); “not soluble; also recorded: Sparingly soluble” in data set [11] (in ethanol); “Soluble” in data set [11] (in ethyl acetate); “Soluble” in [11] (in glacial acetic acid). Further, the Solubility result in [11] (in hexane) is “Insoluble”; in [11] (in methanol) it was “not soluble; also recorded: Sparingly soluble”; in [11] (in toluene) it was “Soluble”; in data set [11] (in water), “Insoluble”. The “stability upon standing in 2N HCl” value in data set [19] is “hydrolyses”.

As a reminder, the MIC is the lowest concentration found to suppress growth. High values mean a need for much substance, low ones inhibition by little substance.
